For data set [1], the system named is Wistar rats with chronic myocardial infarction (MI). The experiment in a line: Measurement of cardiac interstitial collagen (Sirius red) in MI rats. The conditions noted are these: interventricular septum, infarct rats, three weeks, mean ± SEM. In kind it is in vivo, rat. The method, then: The following studies were performed on male Wistar rats (270 to 320 g, Harlan Zeist, Netherlands). The rats were kept in rooms with a 12 h light/dark cycle and had free access to standard rat diet and water. The animals underwent coronary artery ligation (MI rats) or sham operation without ligation (sham rats). After 24 hours the MI rats were randomized and implanted with osmotic minipumps (Alzet, Model 2001) in order to administer moxonidine in a dose of 3 or 6 mg/kg-day s.c. (subcutaneously) or only operated on without pump implant. The moxonidine treatment was continued up to the end of the experiment three weeks after the surgical procedure. The left anterior descending coronary artery was ligated under pentobarbital anesthesia (60 mg/kg, i.p.). Brief description: after intubation of the trachea, an incision was made in the skin over the 4th intercostal space. […] The quantity of interstitial collagen was determined on 6 to 7 hearts randomly selected from each experimental group. […] The data obtained were expressed as group means ± SEM (standard error of the mean) unless otherwise stated. […] The data were analyzed by one-way analysis of variance (ANOVA) followed by post-hoc Bonferroni analysis. Differences in the structural parameters in moxonidine treated and untreated infarcted hearts were determined by Student t-test independently for the two groups.

Data set [2] has the same test system. The experiment in a line: Plasma noradrenaline (HPLC) and ANF (RIA) levels in MI rats. The settings on record: for Plasma NA (noradrenaline) level / Plasma ANF (atrial natriuretic factor): three weeks, mean ± SEM. In kind it is in vivo, rat. The method, then:
The following studies were performed on male Wistar rats (270 to 320 g, Harlan Zeist, Netherlands). The rats were kept in rooms with a 12 h light/dark cycle and had free access to standard rat diet and water. The animals underwent coronary artery ligation (MI rats) or sham operation without ligation (sham rats). After 24 hours the MI rats were randomized and implanted with osmotic minipumps (Alzet, Model 2001) in order to administer moxonidine in a dose of 3 or 6 mg/kg-day s.c. (subcutaneously) or only operated on without pump implant. The moxonidine treatment was continued up to the end of the experiment three weeks after the surgical procedure. The left anterior descending coronary artery was ligated under pentobarbital anesthesia (60 mg/kg, i.p.). Brief description: after intubation of the trachea, an incision was made in the skin over the 4th intercostal space. The overlaying muscles were separated and kept aside. […] The pericardium was opened. The heart was left in situ and a 6-0 silk suture was placed below the left coronary artery in the vicinity of the origin of the pulmonary artery. The suture was tightened. Sham rats were subjected to the same procedure but without actual ligation. The ribs were pulled together with 3-0 silk suture. The muscles were then returned to their original position and the skin was sutured. 19 days after the surgical procedure for coronary artery ligation the rats were again anesthetized with pentobarbital and a catheter (PE-10, heat-sealed with PE-50) was introduced through the femoral artery and placed in the abdominal aorta. The catheter was advanced subcutaneously as far as the animals' neck, where it was allowed to exit and was fixed and closed at the exit site. The rats were allowed a 2-day recovery period. On the day of sampling the catheter was lengthened with a heparin-treated, saline-filled tube and two 1-ml blood samples were collected after at least 60 minutes. Blood was collected in pre-cooled sample pots (syringes) prepared with 10 μl EDTA (0.1M). After centrifugation the plasma was collected in pre-cooled tubes containing either 1.2 mg glutathione or 10 μl aprotinin (100 KIU; KIU=kilo international units) in order to determine either catecholamines or atrial natriuretic factor (ANF). The tubes were stored at −80° C. The plasma concentrations of noradrenaline, adrenaline and dopamine were determined by HPLC, whereas the concentrations of ANF were analyzed using an RIA test. The data obtained were expressed as group means ± SEM (standard error of the mean) unless otherwise stated. Only data of infarcted hearts with an infarct area covering the major portion of the free heart wall of the left ventricle were included in the evaluation since smaller infarct areas are usually fully compensated hemodynamically. The data were analyzed by one-way analysis of variance (ANOVA) followed by post-hoc Bonferroni analysis. Differences in the structural parameters in moxonidine treated and untreated infarcted hearts were determined by Student t-test independently for the two groups.

For data set [3] the test system is unchanged. The data set can be described thus: Wistar rats with chronic myocardial infarction (coronary artery ligation): body weight, heart weight, heart rate, MAP, mortality. In kind it is in vivo. The settings on record: for Heart rate: conscious infarct rats. The method, then:
The following studies were performed on male Wistar rats (270 to 320 g, Harlan Zeist, Netherlands). The rats were kept in rooms with a 12 h light/dark cycle and had free access to standard rat diet and water. The animals underwent coronary artery ligation (MI rats) or sham operation without ligation (sham rats). After 24 hours the MI rats were randomized and implanted with osmotic minipumps (Alzet, Model 2001) in order to administer moxonidine in a dose of 3 or 6 mg/kg-day s.c. (subcutaneously) or only operated on without pump implant. The moxonidine treatment was continued up to the end of the experiment three weeks after the surgical procedure.
The left anterior descending coronary artery was ligated under pentobarbital anesthesia (60 mg/kg, i.p.). Brief description: after intubation of the trachea, an incision was made in the skin over the 4th intercostal space. The overlaying muscles were separated and kept aside. The animals were then placed on positive pressure ventilation (rate 65 to 70/min, stroke volume 3 ml) and the thoracic cavity was opened by cutting the intercostal muscles. The pericardium was opened. The heart was left in situ and a 6-0 silk suture was placed below the left coronary artery in the vicinity of the origin of the pulmonary artery. The suture was tightened. Sham rats were subjected to the same procedure but without actual ligation. The ribs were pulled together with 3-0 silk suture. The muscles were then returned to their original position and the skin was sutured.
The data obtained were expressed as group means ± SEM (standard error of the mean) unless otherwise stated. Only data of infarcted hearts with an infarct area covering the major portion of the free heart wall of the left ventricle were included in the evaluation since smaller infarct areas are usually fully compensated hemodynamically. The data were analyzed by one-way analysis of variance (ANOVA) followed by post-hoc Bonferroni analysis. Differences in the structural parameters in moxonidine treated and untreated infarcted hearts were determined by Student t-test independently for the two groups.
Four groups of rats were studied: 2 moxonidine-treated infarct rats (dosage 3 and 6 mg/kg·day), untreated infarct rats and sham-operated control rats (SHAM rats). Coronary artery ligation produced a main infarction in the free wall of the left ventricle. Total mortality of the experimental animals was 29% and was the same in both infarct groups. Data of five rats of the 6 mg/kg·day group had to be excluded since their infarct area was too small. The results of the tests are summarized in Table 1 for experiments with a dosage of 6 mg/kg·day and for a dosage of 3 mg/kg·day, and are explained in the following. The results shown in Table 1 comprise the data of groups of 7 to 14 rats with the exception of the collagen measurements, for which the data refer to groups of 6 to 7 rats.

Setting [4] is: infarct rats, moxonidine 6 mg/kg daily s.c.
The mark [5] stands for this setting: infarct rats, moxonidine 3 mg/kg daily s.c., three weeks, mean ± SEM.
Setting [6] is: infarct rats, moxonidine 6 mg/kg daily s.c., three weeks, mean ± SEM.

Regarding `COc1nc(C)nc(Cl)c1NC1=NCCN1` [moxonidine, 4-chloro-5-[(4,5-dihydro-1H-imidazol-2-yl)-amino]-6-methoxy-2-methyl-pyrimidine], the “Interstitial Collagen” value in data set [1] (moxonidine 3 mg/kg daily s.c.) stood at 2.4 ± 0.2 %; in data set [1] (moxonidine 6 mg/kg daily s.c.), 1.4 ± 0.1%. Moreover, the “Plasma noradrenaline levels (in words)” value is given as “clearly reduced” in data set [2] (infarct rats, 3 mg/kg·day group); “almost half the values of the sham rats” in data set [2] (infarct rats, 6 mg/kg·day group, versus sham rats); “about half the value found for the sham rats” in data set [2] (moxonidine-treated infarct rats, dose not stated, versus sham rats). The “Plasma NA (noradrenaline) level” value in data set [2] (infarct rats, moxonidine 3 mg/kg daily s.c.) came to 345 ± 108 pg/mL; in data set [2] (setting [4]), 96 ± 20 pg/mL. The “Plasma ANF (atrial natriuretic factor)” value in data set [2] (infarct rats, moxonidine 3 mg/kg daily s.c., n-3) was “(54 ± 2, n-3) pg/ml”; in data set [2] (setting [4]), 61 ± 8 pg/mL. Moreover, in data set [2] (moxonidine-treated infarct rats versus untreated infarct rats), the “Plasma ANF levels (in words)” value is listed as “unchanged compared to those of untreated infarct rats”. Further, the Heart rate in data set [3] (moxonidine 3 mg/kg daily s.c., three weeks, mean ± SEM) is 334 ± 12 beats/min; in data set [3] (moxonidine 6 mg/kg daily s.c., three weeks, mean ± SEM) it was 321 ± 6 beats/min. Further, the Heart weight stood at 1408 ± 104 mg in data set [3] (setting [5]) and 1076 ± 24 mg in data set [3] (setting [6]). In data set [3] (setting [5]), the Heart/Body weight ratio stood at 4.7 ± 0.4. Further, the “MAP (mean arterial pressure)” value is listed as 87 ± 3 mmHg in data set [3] (setting [5]) and 100 ± 5 mmHg in data set [3] (setting [6]). Further, the “Heart rate measured in conscious animals (in words)” value in data set [3] (moxonidine-treated infarct rats versus sham rats) is on record as “slowing of cardiac activity (bradycardia) compared to the sham rats”. Also, the “Body weight (in words)” value in data set [3] (moxonidine-treated infarct rats versus untreated infarct rats and sham rats) is on record as “slightly lower body weight than the untreated infarct rats”. Moreover, the “Cardiac weight (in words)” value in data set [3] (moxonidine-treated infarct rats versus untreated infarct rats, dosage depending 3 to 6 mg/kg·day) is “significantly lower than the cardiac weight of untreated infarct rats”. For the same molecule, the “Total mortality of the experimental animals” value in data set [3] (the same in both infarct groups (treated and untreated)) is 29%.
